Results: patent publication US8394952B2 (Vertex Pharmaceuticals Incorporated, priority 2006, dated 2013)

Target: Plk1 (Homo sapiens, UniProt P53350)
Experiment: biochemical

Sequence of Plk1 (P53350 20-338): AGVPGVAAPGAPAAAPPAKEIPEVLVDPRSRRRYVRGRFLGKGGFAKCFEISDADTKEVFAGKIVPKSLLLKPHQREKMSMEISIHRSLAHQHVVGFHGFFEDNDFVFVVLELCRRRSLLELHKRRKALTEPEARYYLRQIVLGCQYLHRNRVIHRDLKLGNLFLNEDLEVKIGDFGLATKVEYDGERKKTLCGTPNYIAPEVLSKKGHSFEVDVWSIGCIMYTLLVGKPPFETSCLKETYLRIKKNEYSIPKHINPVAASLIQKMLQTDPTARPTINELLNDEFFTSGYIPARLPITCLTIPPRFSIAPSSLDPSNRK

Structure (SMILES): COc1cc(C(=O)Nc2cc(C)[nH]n2)ccc1Nc1ncc2c(n1)N(C1CCCC1)CC(C)(C)C(=O)N2C [Compound I-231, 4-(9-cyclopentyl-5,7,7-trimethyl-6-oxo-6,7,8,9-tetrahydro-5H-pyrimido[4,5-b][1,4]diazepin-2-ylamino)-3-methoxy-N-(5-methyl-1H-pyrazol-3-yl)benzamide]
- Ki: < 10 nM

Structure (SMILES): COc1cc(C(=O)NCC(F)(F)F)ccc1Nc1ncc2c(n1)N(C1CCCC1)CC(C)(C)C(=O)N2C [Compound I-105]
- Ki: < 10 nM

Structure (SMILES): CNC(=O)c1ccc(Nc2ncc3c(n2)N(C2CCCC2)CC(C)(C)C(=O)N3C)cc1 [Compound I-80, 4-(9-cyclopentyl-6,7,8,9-tetrahydro-5,7,7-trimethyl-6-oxo-5H-pyrimido[4,5-b][1,4]diazepin-2-ylamino)-N-methylbenzamide]
- Ki: < 10 nM

Structure (SMILES): CN1C(=O)C(C)(C)CN(C2CCCC2)c2nc(Nc3ccc4[nH]c(=O)[nH]c4c3)ncc21 [Compound I-108, 2-(2,3-dihydro-2-oxo-1H-benzo[d]imidazol-6-ylamino)-9-cyclopentyl-8,9-dihydro-5,7,7-trimethyl-5H-pyrimido[4,5-b][1,4]diazepin-6(7H)-one]
- Ki: < 10 nM

Structure (SMILES): COc1cc(C(=O)Nc2ccncc2C(F)(F)F)ccc1Nc1ncc2c(n1)N(C1CCCC1)CC(C)(C)C(=O)N2C [Compound I-234]
- Ki: < 10 nM

Structure (SMILES): COc1cc(C(=O)NC2CCNCC2)ccc1Nc1ncc2c(n1)N(C1CCCC1)CC(C)(C)C(=O)N2C [Compound I-101]
- Ki: < 10 nM

Structure (SMILES): COc1cc(C(=O)NCCOCCO)ccc1Nc1ncc2c(n1)N(C1CCCC1)CC(C)(C)C(=O)N2C [Compound I-237, 4-(9-cyclopentyl-5,7,7-trimethyl-6-oxo-6,7,8,9-tetrahydro-5H-pyrimido[4,5-b][1,4]diazepin-2-ylamino)-N-(2-(2-hydroxyethoxy)ethyl)-3-methoxybenzamide]
- Ki: < 10 nM

Structure (SMILES): COc1cc(C(=O)N[C@@H]2CCc3ccccc32)ccc1Nc1ncc2c(n1)N(C1CCCC1)CC(C)(C)C(=O)N2C [Compound I-209, (R)-4-(9-cyclopentyl-5,7,7-trimethyl-6-oxo-6,7,8,9-tetrahydro-5H-pyrimido[4,5-b][1,4]diazepin-2-ylamino)-N-(2,3-dihydro-1H-inden-1yl)-3-methoxy-benzamide]
- Ki: < 10 nM

Structure (SMILES): COc1ccc(NC(=O)c2ccc(Nc3ncc4c(n3)N(C3CCCC3)CC(C)(C)C(=O)N4C)c(OC)c2)cc1 [Compound I-261, 4-(9-cyclopentyl-5,7,7-trimethyl-6-oxo-6,7,8,9-tetrahydro-5H-pyrimido[4,5-b][1,4]diazepin-2-ylamino)-3-methoxy-N-(4-methoxyphenyl)benzamide]
- Ki: < 10 nM

Structure (SMILES): CNC(=O)c1ccc(Nc2ncc3c(n2)N([C@@H]2CCNC2)CC(C)(C)C(=O)N3C)c(OC)c1 [Compound I-19, 4-(6,7,8,9-tetrahydro-5,7,7-trimethyl-6-oxo-9-((R)-pyrrolidin-3-yl)-5H-pyrimido[4,5-b][1,4]diazepin-2-ylamino)-3-methoxy-N-methylbenzamide]
- Ki: 10 to 100 nM

Structure (SMILES): COc1cc(C(=O)N[C@H]2CC[C@@H](F)CC2)ccc1Nc1ncc2c(n1)N(C1CCCC1)CC(C)(C)C(=O)N2C [Compound I-267, 4-(9-cyclopentyl-5,7,7-trimethyl-6-oxo-6,7,8,9-tetrahydro-5H-pyrimido[4,5-b][1,4]diazepin-2-ylamino)-N-((1S,4S)-4-fluorocylohexyl)-3-methoxybenzamide]
- Ki: < 10 nM

Structure (SMILES): COc1cc(C(=O)N[C@@H]2CC[C@@H](CO)C2)ccc1Nc1ncc2c(n1)N(C1CCCC1)CC(C)(C)C(=O)N2C [Compound I-260, 4-(9-cyclopentyl-5,7,7-trimethyl-6-oxo-6,7,8,9-tetrahydro-5H-pyrimido[4,5-b][1,4]diazepin-2-ylamino)-N-((1R,3R)-3-(hydroxymethyl)cyclopentyl)-3-methoxybenzamide]
- Ki: < 10 nM

Structure (SMILES): COc1cc(C(=O)NCCc2cn(C)cn2)ccc1Nc1ncc2c(n1)N(C1CCCC1)CC(C)(C)C(=O)N2C [Compound I-31, 4-(9-cyclopentyl-6,7,8,9-tetrahydro-5,7,7-trimethyl-6-oxo-5H-pyrimido[4,5-b][1,4]diazepin-2-ylamino)-3-methoxy-N-(2-(1-methyl-1H-imidazo-4-yl)ethyl)benzamide]
- Ki: < 10 nM

Structure (SMILES): COc1cc(C(=O)N2CC(OC)C2)ccc1Nc1ncc2c(n1)N(C1CCCC1)CC(C)(C)C(=O)N2C [Compound I-220, 9-cyclopentyl-2-(2-methoxy-4-(3-methoxyazetidine-1-carbonyl)phenylamino)-5,7,7-trimethyl-8,9-dihydro-5H-pyrimido[4,5-b][1,4]diazepin-6(7H)-one]
- Ki: < 10 nM

Structure (SMILES): CNC(=O)c1cccc(Nc2ncc3c(n2)N(C2CCCC2)CC(C)(C)C(=O)N3C)c1 [Compound I-46, 3-(9-cyclopentyl-6,7,8,9-tetrahydro-5,7,7-trimethyl-6-oxo-5H-pyrimido[4,5-b][1,4]diazepin-2-ylamino)-N-methylbenzamide]
- Ki: 10 to 100 nM

Structure (SMILES): CNC(=O)c1ccc(Nc2ncc3c(n2)N(C2CCC2)CC(C)(C)C(=O)N3C)c(OC)c1 [Compound I-167, 4-(9-cyclobutyl-6,7,8,9-tetrahydro-5,7,7-trimethyl-6-oxo-5H-pyrimido[4,5-b][1,4]diazepin-2-ylamino)-3-methoxy-N-methylbenzamide]
- Ki: < 10 nM

Structure (SMILES): CNC(=O)c1ccc(Nc2ncc3c(n2)N(C2CCN(C)CC2)CC(C)(C)C(=O)N3C)c(OC)c1 [Compound I-97, 4-(6,7,8,9-tetrahydro-5,7,7-trimethyl-9-((R)-1-methylpiperidine-4-yl)-6-oxo-5H-pyrimido[4,5-b][1,4]diazepin-2-ylamino)-3-methoxy-N-methylbenzamide]
- Ki: 10 to 100 nM

Structure (SMILES): COc1cc(C(=O)N[C@@H]2C[C@H]2c2ccccc2)ccc1Nc1ncc2c(n1)N(C1CCCC1)CC(C)(C)C(=O)N2C [Compound I-225, 4-(9-cyclopentyl-5,7,7-trimethyl-6-oxo-6,7,8,9-tetrahydro-5H-pyrimido[4,5-b][1,4]diazepin-2-ylamino)-3-methoxy-N-((1R,2S)-2-phenylcyclopropyl)benzamide]
- Ki: < 10 nM

Structure (SMILES): COc1cc(C(=O)NCCO)ccc1Nc1ncc2c(n1)N(C1CCCC1)CC(C)(C)C(=O)N2C [Compound I-264, 4-(9-cyclopentyl-5,7,7-trimethyl-6-oxo-6,7,8,9-tetrahydro-5H-pyrimido[4,5-b][1,4]diazepin-2-ylamino)-N-(2-hydroxyethyl)-3-methoxybenzamide]
- Ki: < 10 nM

Structure (SMILES): COC[C@H](C)NC(=O)c1ccc(Nc2ncc3c(n2)N(C2CCCC2)CC(C)(C)C(=O)N3C)c(OC)c1 [Compound I-217, (S)-4-(9-cyclopentyl-5,7,7-trimethyl-6-oxo-6,7,8,9-tetrahydro-5H-pyrimido[4,5-b][1,4]diazepin-2-ylamino)-3-methoxy-N-(1-methoxypropan-2-yl)benzamide]
- Ki: < 10 nM

Structure (SMILES): COc1cc(C(=O)NC2CC2)ccc1Nc1ncc2c(n1)N(C1CCCC1)CC(C)(C)C(=O)N2C [Compound I-93, 4-(9-cyclopentyl-6,7,8,9-tetrahydro-5,7,7-trimethyl-6-oxo-5H-pyrimido[4,5-b][1,4]diazepin-2-ylamino)-N-cyclopropyl-3-methoxybenzamide]
- Ki: < 10 nM

Structure (SMILES): COc1cc(C(=O)NCc2ccccn2)ccc1Nc1ncc2c(n1)N(C1CCCC1)CC(C)(C)C(=O)N2C [Compound I-255, 4-(9-cyclopentyl-5,7,7-trimethyl-6-oxo-6,7,8,9-tetrahydro-5H-pyrimido[4,5-b][1,4]diazepin-2-ylamino)-3-methoxy-N-(pyridin-2-ylmethyl)benzamide]
- Ki: < 10 nM

Structure (SMILES): CN1C(=O)C(C)(C)CN(C2CCCC2)c2nc(Nc3ccc(-c4cc[nH]n4)cc3)ncc21 [Compound I-99, 2-(4-(1H-pyrazol-3-yl)phenylamino)-9-cyclopentyl-8,9-dihydro-5,7,7-trimethyl-5H-pyrimido[4,5-b][1,4]diazepin-6(7H)-one]
- Ki: < 10 nM

Structure (SMILES): COc1cc(C(=O)NC2CCN(C(C)(C)C)CC2)ccc1Nc1ncc2c(n1)N(C1CCCC1)CC(C)(C)C(=O)N2C [Compound I-71, 4-(9-cyclopentyl-6,7,8,9-tetrahydro-5,7,7-trimethyl-6-oxo-5H-pyrimido[4,5-b][1,4]diazepin-2-ylamino)-N-(1-tert-butylpiperidin-4-yl)-3-methoxybenzamide]
- Ki: < 10 nM

Structure (SMILES): CCOc1cc(C(=O)NC2CCN(C(C)C)CC2)ccc1Nc1ncc2c(n1)N(C1CCCC1)CC(C)(C)C(=O)N2C [Compound I-135, 4-(9-cyclopentyl-6,7,8,9-tetrahydro-5,7,7-trimethyl-6-oxo-5H-pyrimido[4,5-b][1,4]diazepin-2-ylamino)-3-ethoxy-N-(1-isopropylpiperidin-4-yl)benzamide]
- Ki: < 10 nM

Structure (SMILES): CNC(=O)c1ccc(Nc2ncc3c(n2)N([C@@H]2CCN(CC4CC4)C2)CC(C)(C)C(=O)N3C)c(OC)c1 [Compound I-66]
- Ki: 10 to 100 nM

Structure (SMILES): COCCNC(=O)c1ccc(Nc2ncc3c(n2)N(C2CCCC2)CCC(=O)N3C)c(OC)c1 [Compound I-11, 4-(9-cyclopentyl-6,7,8,9-tetrahydro-5-methyl-6-oxo-5H-pyrimido[4,5-b][1,4]diazepin-2-ylamino)-3-methoxy-N-(2-methoxyethyl)benzamide]
- Ki: < 10 nM

Structure (SMILES): COc1cc(C(=O)Nc2cnccn2)ccc1Nc1ncc2c(n1)N(C1CCCC1)CC(C)(C)C(=O)N2C [Compound I-224, 4-(9-cyclopentyl-5,7,7-trimethyl-6-oxo-6,7,8,9-tetrahydro-5H-pyrimido[4,5-b][1,4]diazepin-2-ylamino)-3-methoxy-N-(pyrazin-2-yl)benzamide]
- Ki: < 10 nM

Structure (SMILES): CNC(=O)c1ccc(Nc2ncc3c(n2)N(C2CCOCC2)CC(C)(C)C(=O)N3C)c(OC)c1 [Compound I-56, 4-(6,7,8,9-tetrahydro-9-(tetrahydro-2H-pyran-4-yl)-5,7,7-trimethyl-6-oxo-5H-pyrimido[4,5-b][1,4]diazepin-2-ylamino)-3-methoxy-N-methylbenzamide]
- Ki: 10 to 100 nM

Structure (SMILES): COc1cc(C(=O)NCCF)ccc1Nc1ncc2c(n1)N(C1CCCC1)CC(C)(C)C(=O)N2C [Compound I-279, 4-(9-cyclopentyl-5,7,7-trimethyl-6-oxo-6,7,8,9-tetrahydro-5H-pyrimido[4,5-b][1,4]diazepin-2-ylamino)-N-(2-fluoroethyl)-3-methoxybenzamide]
- Ki: < 10 nM

Structure (SMILES): CNC(=O)c1ccc(Nc2ncc3c(n2)N(CC(C)(C)C)CC(C)(C)C(=O)N3C)c(OC)c1 [Compound I-168, 4-(6,7,8,9-tetrahydro-5,7,7-trimethyl-9-neopentyl-6-oxo-5H-pyrimido[4,5-b][1,4]diazepin-2-ylamino)-3-methoxy-N-methylbenzamide]
- Ki: 10 to 100 nM
